Source: ChEMBL document CHEMBL1764984 (J Med Chem, 2011)
≈ marks a conversion by molar mass, not a printed value. One block for each molecule: values may come before it.

How the values were obtained:
[1] = biological target: Tyrosine-protein kinase Lck (Homo sapiens, UniProt P06239); test: Inhibition of LCK
[2] = test system: Blood; test: Inhibition of TNFalpha-induced IL1-beta production in human whole blood after 2 to 5 hrs by ELISA; type: functional, tissue-based
[3] = biological target: T1, Mitogen-activated protein kinase 14 (Homo sapiens, UniProt Q16539); test: Inhibition of human recombinant p38alpha assessed as incorporation of 33P from gamma-[33P]ATP into myelin basic protein after 30 mins by scintillation counting
[4] = AUC (infinity) in Hanover-Wistar rat at 10 mg/kg, po; type: ADME, organism-based; parameters: dose 10 mg/kg, route oral, time infinity; conditions: plasma
[5] = Plasma protein binding in Hanover-Wistar rat by untrafiltration method; type: ADME, cell-free; conditions: read-out: PPB (converted)
[6] = Tmax in Beagle dog at 10 mg/kg, po; type: ADME, organism-based, Canis lupus familiaris; parameters: dose 10 mg/kg, route oral; conditions: in vivo
[7] = Cmax in Beagle dog at 10 mg/kg, po; type: ADME, organism-based, Canis lupus familiaris; parameters: dose 10 mg/kg, route oral; conditions: in vivo
[8] = Half life in Beagle dog at 10 mg/kg, po; type: ADME, organism-based, Canis lupus familiaris; parameters: dose 10 mg/kg, route oral; conditions: in vivo
[9] = AUC (infinity) in Beagle dog at 10 mg/kg, po; type: ADME, organism-based, Canis lupus familiaris; parameters: time infinity, dose 10 mg/kg, route oral; conditions: plasma
[10] = Oral bioavailability in Beagle dog at 10 mg/kg; type: ADME, organism-based, Canis lupus familiaris; conditions: in vivo
[11] = Clearance in Beagle dog at 10 mg/kg, iv; type: ADME, organism-based, Canis lupus familiaris; parameters: dose 10 mg/kg, route intravenous; conditions: in vivo
[12] = Volume of distribution at steady state in Beagle dog at 10 mg/kg, iv; type: ADME, organism-based, Canis lupus familiaris; parameters: dose 10 mg/kg, route intravenous; conditions: in vivo, read-out: Vdss
[13] = Plasma protein binding in Beagle dog by untrafiltration method; type: ADME, cell-free, Canis lupus familiaris; conditions: read-out: PPB (converted)
[14] = Aqueous solubility of the compound in phosphate buffer at pH 6.5; type: physicochemical
[15] = Permeability of the compound from apical to basolateral side of human Caco2 cells at 10 uM after 21 days; type: ADME, cell-based; conditions: Caco-2, read-out: permeability
[16] = Permeability of the compound from basolateral to apical side of human Caco2 cells at 10 uM after 21 days; type: ADME, cell-based; conditions: Caco-2, read-out: permeability
[17] = test system: Rattus norvegicus; test: Inhibition of LPS-induced TNFalpha production in rat serum at 3 mg/kg, po administered 30 mins before LPS challenge measured after […] by ELISA; type: functional
[18] = biological target: T2, Mitogen-activated protein kinase 11 (Homo sapiens, UniProt Q15759); test: Inhibition of P38beta
[19] = biological target: T3, Atypical kinase COQ8A, mitochondrial (Homo sapiens, UniProt Q8NI60); test: Inhibition of ADCK3
Target sequence in this assay (Q8NI60 whole entry, canonical isoform): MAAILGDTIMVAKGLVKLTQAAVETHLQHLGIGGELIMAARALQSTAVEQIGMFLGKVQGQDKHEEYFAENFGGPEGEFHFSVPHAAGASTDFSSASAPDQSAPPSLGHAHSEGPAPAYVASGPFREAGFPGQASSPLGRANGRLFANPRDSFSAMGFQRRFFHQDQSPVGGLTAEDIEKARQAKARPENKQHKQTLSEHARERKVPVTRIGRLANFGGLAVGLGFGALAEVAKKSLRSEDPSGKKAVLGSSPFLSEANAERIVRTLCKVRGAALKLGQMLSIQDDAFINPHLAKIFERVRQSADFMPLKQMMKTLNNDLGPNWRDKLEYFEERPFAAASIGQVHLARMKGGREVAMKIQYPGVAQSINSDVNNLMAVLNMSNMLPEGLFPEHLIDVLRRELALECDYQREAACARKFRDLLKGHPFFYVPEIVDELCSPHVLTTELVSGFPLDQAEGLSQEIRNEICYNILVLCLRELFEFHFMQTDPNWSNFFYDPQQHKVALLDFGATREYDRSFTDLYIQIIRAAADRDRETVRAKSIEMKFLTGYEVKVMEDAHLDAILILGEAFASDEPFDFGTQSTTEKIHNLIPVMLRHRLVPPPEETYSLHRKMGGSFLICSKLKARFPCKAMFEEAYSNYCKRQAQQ

[20] = biological target: T4, Casein kinase I isoform epsilon (Homo sapiens, UniProt P49674); test: Inhibition of CSNK1epsilon
Target sequence in this assay (P49674 whole entry, the tested form may be a part, canonical isoform): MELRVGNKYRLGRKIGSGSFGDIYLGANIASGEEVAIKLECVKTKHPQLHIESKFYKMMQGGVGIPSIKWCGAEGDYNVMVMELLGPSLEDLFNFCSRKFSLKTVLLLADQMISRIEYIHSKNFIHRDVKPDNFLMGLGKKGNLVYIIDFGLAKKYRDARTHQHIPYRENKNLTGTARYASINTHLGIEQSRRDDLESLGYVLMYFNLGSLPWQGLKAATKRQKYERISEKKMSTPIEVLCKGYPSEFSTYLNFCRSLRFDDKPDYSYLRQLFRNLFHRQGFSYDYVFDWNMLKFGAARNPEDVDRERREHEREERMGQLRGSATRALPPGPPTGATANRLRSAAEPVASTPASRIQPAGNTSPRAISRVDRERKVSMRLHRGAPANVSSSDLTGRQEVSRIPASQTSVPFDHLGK

[21] = biological target: T5, Epithelial discoidin domain-containing receptor 1 (Homo sapiens, UniProt Q08345); test: Inhibition of DDR1
[22] = biological target: T6, Mitogen-activated protein kinase 10 (Homo sapiens, UniProt P53779); test: Inhibition of JNK3
[23] = biological target: Serine/threonine-protein kinase NLK (Homo sapiens, UniProt Q9UBE8); test: Inhibition of NLK
[24] = biological target: T7, Ribosomal protein S6 kinase alpha-4 (Homo sapiens, UniProt O75676); test: Inhibition of RSK4
[25] = biological target: Serine/threonine-protein kinase 36 (Homo sapiens, UniProt Q9NRP7); test: Inhibition of STK36
[26] = test system: Rattus norvegicus; test: Inhibition of LPS-induced TNFalpha production in po dosed rat serum administered 30 mins before LPS challenge measured after […] by ELISA; type: functional, organism-based
[27] = test system: THP-1; test: Inhibition of LPS-induced TNFalpha production in human THP1 cells after 2 hrs by ELISA; type: functional, cell-based; conditions: THP-1, 2 h
[28] = test system: Rattus norvegicus; test: Inhibition of LPS-induced IL-6 production in po dosed rat serum administered 30 mins before LPS challenge measured after […] by ELISA; type: functional, organism-based
[29] = test system: Rattus norvegicus; test: Inhibition of TNF-alpha-induced IL-6 production in po dosed rat plasma administered 30 mins before TNFalpha challenge measured after 2 hrs by ELISA; type: functional, organism-based
[30] = test system: Rattus norvegicus; test: Analgesic activity in po dosed rat inflammatory yeast hyperalgesia model assessed as increase in tolerance to pressure; type: functional, organism-based; conditions: po
[31] = Tmax in cynomolgus monkey at 10 mg/kg, po; type: ADME, organism-based, Macaca fascicularis; parameters: dose 10 mg/kg, route oral; conditions: in vivo
[32] = Cmax in cynomolgus monkey at 10 mg/kg, po; type: ADME, organism-based, Macaca fascicularis; parameters: dose 10 mg/kg, route oral; conditions: in vivo
[33] = Half life in cynomolgus monkey at 10 mg/kg, po; type: ADME, organism-based, Macaca fascicularis; parameters: dose 10 mg/kg, route oral; conditions: in vivo
[34] = AUC (infinity) in cynomolgus monkey at 10 mg/kg, po; type: ADME, organism-based, Macaca fascicularis; parameters: time infinity, dose 10 mg/kg, route oral; conditions: plasma
[35] = Oral bioavailability in cynomolgus monkey at 10 mg/kg; type: ADME, organism-based, Macaca fascicularis; conditions: in vivo
[36] = Clearance in cynomolgus monkey at 10 mg/kg, iv; type: ADME, organism-based, Macaca fascicularis; parameters: dose 10 mg/kg, route intravenous; conditions: in vivo
[37] = Volume of distribution at steady state in cynomolgus monkey at 10 mg/kg, iv; type: ADME, organism-based, Macaca fascicularis; parameters: dose 10 mg/kg, route intravenous; conditions: in vivo, read-out: Vdss
[38] = Plasma protein binding in cynomolgus monkey by untrafiltration method; type: ADME, cell-free, Macaca fascicularis; conditions: read-out: PPB (converted)
[39] = biological target: Cytochrome P450 1A2 (Homo sapiens, UniProt P05177); test: Inhibition of human CYP1A2; type: ADME
[40] = biological target: Cytochrome P450 2C9 (Homo sapiens, UniProt P11712); test: Inhibition of human CYP2C9; type: ADME
[41] = biological target: Cytochrome P450 2C19 (Homo sapiens, UniProt P33261); test: Inhibition of human CYP2C19; type: ADME
[42] = biological target: Cytochrome P450 2D6 (Homo sapiens, UniProt P10635); test: Inhibition of human CYP2D6; type: ADME
[43] = biological target: Cytochrome P450 3A4 (Homo sapiens, UniProt P08684); test: Inhibition of human CYP3A4; type: ADME
[44] = biological target: T2, Mitogen-activated protein kinase 11; test: Inhibition of P38beta at 10 uM
[45] = biological target: T5, Epithelial discoidin domain-containing receptor 1; test: Inhibition of DDR1 at 10 uM
[46] = biological target: Cyclin-G-associated kinase (Homo sapiens) (UniProt O14976); test: Inhibition of GAK at 10 uM
[47] = biological target: Mitogen-activated protein kinase 8 (Homo sapiens) (UniProt P45983); test: Inhibition of JNK1 at 10 uM
[48] = biological target: Mitogen-activated protein kinase 9 (Homo sapiens) (UniProt P45984); test: Inhibition of JNK2 at 10 uM
[49] = biological target: Serine/threonine-protein kinase NLK (Homo sapiens) (UniProt Q9UBE8); test: Inhibition of NLK at 10 uM
[50] = biological target: Ribosomal protein S6 kinase alpha-3 (Homo sapiens, UniProt P51812); test: Inhibition of RSK2 at 10 uM
[51] = biological target: T7, Ribosomal protein S6 kinase alpha-4; test: Inhibition of RSK4 at 10 uM
[52] = biological target: T3, Atypical kinase COQ8A, mitochondrial; conditions: 10 uM
Description: Inhibition of ADCK3 at 10 uM

[53] = biological target: T4, Casein kinase I isoform epsilon; conditions: 10 uM
Target sequence in this assay (P49674 whole entry, looked up, the tested form may be a part, canonical isoform): as the sequence (P49674 whole entry, the tested form may be a part, canonical isoform) above
Description: Inhibition of CSNK1epsilon at 10 uM

[54] = biological target: T6, Mitogen-activated protein kinase 10; conditions: 10 uM
Description: Inhibition of JNK3 at 10 uM

[55] = biological target: Serine/threonine-protein kinase 36 (Homo sapiens) (UniProt Q9NRP7); conditions: 10 uM
Description: Inhibition of STK36 at 10 uM

[56] = biological target: T1, Mitogen-activated protein kinase 14; test: Inhibition of p38alpha

T1 sequence (Q16539 whole entry): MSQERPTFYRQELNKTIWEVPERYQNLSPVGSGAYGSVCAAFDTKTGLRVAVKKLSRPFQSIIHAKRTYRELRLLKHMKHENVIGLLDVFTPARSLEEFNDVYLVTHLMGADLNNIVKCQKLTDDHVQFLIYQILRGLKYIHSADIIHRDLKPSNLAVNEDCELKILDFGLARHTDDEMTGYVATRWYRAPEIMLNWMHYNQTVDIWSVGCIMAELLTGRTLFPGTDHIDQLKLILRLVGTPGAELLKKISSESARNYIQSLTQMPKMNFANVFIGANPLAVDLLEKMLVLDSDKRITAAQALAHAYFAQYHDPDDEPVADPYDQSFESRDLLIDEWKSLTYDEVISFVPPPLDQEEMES
T6 sequence (P53779 whole entry): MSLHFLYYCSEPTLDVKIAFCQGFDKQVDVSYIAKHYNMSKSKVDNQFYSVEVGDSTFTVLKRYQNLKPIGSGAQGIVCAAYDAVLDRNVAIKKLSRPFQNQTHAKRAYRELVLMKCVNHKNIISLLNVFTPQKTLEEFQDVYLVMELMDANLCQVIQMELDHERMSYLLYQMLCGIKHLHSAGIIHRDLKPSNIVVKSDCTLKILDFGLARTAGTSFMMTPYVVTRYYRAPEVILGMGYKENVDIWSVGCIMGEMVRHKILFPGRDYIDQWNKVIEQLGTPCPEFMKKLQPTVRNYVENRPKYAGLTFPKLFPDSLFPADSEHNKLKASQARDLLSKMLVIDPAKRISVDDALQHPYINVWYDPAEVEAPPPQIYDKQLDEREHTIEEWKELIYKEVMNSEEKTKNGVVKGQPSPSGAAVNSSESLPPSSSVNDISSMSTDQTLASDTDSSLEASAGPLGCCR
Chain of Tyrosine-protein kinase Lck (P06239 whole entry): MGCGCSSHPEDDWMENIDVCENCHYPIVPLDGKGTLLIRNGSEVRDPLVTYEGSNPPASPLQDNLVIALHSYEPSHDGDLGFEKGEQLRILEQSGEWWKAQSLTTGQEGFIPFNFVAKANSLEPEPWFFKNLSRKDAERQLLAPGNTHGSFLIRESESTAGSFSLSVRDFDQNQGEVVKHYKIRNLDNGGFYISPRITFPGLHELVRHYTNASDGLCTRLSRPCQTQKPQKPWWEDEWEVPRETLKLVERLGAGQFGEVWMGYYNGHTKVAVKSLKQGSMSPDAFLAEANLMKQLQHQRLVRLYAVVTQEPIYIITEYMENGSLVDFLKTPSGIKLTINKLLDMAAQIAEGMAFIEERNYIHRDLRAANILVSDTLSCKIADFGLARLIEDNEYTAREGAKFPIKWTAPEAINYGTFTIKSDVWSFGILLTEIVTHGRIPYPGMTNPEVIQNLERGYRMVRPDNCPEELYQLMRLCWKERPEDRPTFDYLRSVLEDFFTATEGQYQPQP
T2 sequence (Q15759 whole entry): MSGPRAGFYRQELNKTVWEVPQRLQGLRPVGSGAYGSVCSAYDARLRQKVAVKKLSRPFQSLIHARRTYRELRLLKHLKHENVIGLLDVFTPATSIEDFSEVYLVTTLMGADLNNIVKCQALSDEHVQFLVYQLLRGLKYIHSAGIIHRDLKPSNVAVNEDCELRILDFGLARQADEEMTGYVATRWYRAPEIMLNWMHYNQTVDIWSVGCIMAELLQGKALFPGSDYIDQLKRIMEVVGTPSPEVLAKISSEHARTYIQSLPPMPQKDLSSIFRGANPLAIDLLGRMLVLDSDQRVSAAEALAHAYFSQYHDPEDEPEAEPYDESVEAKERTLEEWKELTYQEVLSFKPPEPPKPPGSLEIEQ
T5 sequence (Q08345 whole entry, the tested form may be a part): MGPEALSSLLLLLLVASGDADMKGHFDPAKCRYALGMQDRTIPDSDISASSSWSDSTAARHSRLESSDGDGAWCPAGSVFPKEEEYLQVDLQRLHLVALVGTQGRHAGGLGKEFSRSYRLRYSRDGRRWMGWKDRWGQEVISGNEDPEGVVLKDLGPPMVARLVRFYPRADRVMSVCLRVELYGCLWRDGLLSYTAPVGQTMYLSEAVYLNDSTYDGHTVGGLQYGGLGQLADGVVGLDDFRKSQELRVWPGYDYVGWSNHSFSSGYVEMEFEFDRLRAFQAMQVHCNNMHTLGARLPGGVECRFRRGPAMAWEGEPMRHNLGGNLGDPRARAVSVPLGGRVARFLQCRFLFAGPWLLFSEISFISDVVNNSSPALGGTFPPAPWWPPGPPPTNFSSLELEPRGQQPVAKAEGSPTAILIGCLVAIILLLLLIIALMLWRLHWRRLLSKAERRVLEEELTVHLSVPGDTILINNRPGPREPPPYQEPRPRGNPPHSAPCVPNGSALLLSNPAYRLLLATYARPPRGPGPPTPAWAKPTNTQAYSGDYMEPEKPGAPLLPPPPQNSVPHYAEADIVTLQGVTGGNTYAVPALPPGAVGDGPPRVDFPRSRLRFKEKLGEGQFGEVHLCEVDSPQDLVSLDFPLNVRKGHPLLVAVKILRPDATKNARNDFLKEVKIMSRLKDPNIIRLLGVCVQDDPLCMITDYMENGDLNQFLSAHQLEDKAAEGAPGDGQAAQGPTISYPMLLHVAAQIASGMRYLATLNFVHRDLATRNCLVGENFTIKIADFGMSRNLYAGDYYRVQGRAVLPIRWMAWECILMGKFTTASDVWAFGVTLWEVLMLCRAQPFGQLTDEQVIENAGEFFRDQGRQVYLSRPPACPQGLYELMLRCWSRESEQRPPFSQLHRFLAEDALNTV
Chain of Cytochrome P450 3A4 (P08684 whole entry): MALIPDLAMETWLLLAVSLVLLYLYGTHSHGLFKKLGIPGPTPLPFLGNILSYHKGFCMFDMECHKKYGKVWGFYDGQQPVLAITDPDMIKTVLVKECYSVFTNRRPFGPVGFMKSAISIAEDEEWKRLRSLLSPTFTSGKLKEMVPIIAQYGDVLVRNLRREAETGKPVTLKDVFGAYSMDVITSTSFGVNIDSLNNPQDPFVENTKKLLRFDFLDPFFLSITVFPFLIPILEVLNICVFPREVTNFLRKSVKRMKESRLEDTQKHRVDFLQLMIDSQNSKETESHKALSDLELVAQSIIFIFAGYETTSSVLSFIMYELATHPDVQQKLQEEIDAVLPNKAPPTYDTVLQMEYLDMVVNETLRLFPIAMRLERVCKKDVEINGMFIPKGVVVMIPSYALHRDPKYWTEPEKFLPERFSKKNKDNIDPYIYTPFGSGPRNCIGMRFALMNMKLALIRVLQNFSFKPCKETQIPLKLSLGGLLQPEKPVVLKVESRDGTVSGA
Chain of Serine/threonine-protein kinase NLK (Q9UBE8 whole entry): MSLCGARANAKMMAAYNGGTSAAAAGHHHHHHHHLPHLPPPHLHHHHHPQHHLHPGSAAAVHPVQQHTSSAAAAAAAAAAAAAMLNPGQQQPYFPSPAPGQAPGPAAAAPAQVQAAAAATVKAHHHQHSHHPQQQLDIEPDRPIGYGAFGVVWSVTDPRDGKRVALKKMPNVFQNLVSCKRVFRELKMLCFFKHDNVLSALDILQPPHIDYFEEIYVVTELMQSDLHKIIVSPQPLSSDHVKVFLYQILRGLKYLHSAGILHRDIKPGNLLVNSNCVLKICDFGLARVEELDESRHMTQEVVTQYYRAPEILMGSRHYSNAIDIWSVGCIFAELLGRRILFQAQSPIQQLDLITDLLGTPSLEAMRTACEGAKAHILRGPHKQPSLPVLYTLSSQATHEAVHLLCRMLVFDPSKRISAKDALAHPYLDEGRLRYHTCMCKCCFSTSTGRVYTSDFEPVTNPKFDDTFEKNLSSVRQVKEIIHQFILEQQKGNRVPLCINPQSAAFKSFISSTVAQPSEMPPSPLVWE
Chain of Serine/threonine-protein kinase NLK (Homo sapiens) (Q9UBE8 whole entry): as above

Structure (SMILES): Cn1c(=O)c(-c2ccccc2Cl)cc2cnc(NC3CCOCC3)nc21
Kd [1]: 1800 nM
IC50 [2]: 85.7 nM

Structure (SMILES): Cn1c(=O)c(Oc2ccc(F)cc2F)cc2cnc(NC(C)(C)CO)nc21
IC50 [3]: 25 nM

Structure (SMILES): Cl.Cn1c(=O)c(Oc2ccc(F)cc2F)cc2cnc(NC3CCOCC3)nc21 [R-1487 HYDROCHLORIDE]
AUC(0-inf) [4]: 2350 ng·h/mL
fraction unbound [5]: 0.044
Tmax [6]: 0.5 h
Cmax [7]: 110 ng/mL
half-life [8]: 2.23 h
AUC(0-inf) [9]: 310 ng·h/mL
bioavailability [10]: 10.3%
clearance [11]: 54.2 mL/min/kg
Vd [12]: 4.65 L/kg
fraction unbound [13]: 0.096

Structure (SMILES): CS(=O)(=O)CCn1c(=O)c(Oc2ccc(F)cc2F)cc2cnc(NC3CCOCC3)nc21
IC50 [3]: 20 nM
IC50 [2]: 308 nM

Structure (SMILES): Cn1c(=O)c(Oc2ccc(F)cc2F)cc2cnc(NC3CCOCC3)nc21 [R-1487]
Kd [18]: 29 nM
Kd [19]: 320 nM
Kd [20]: > 1000 nM
Kd [21]: 270 nM
Kd [22]: 3 nM
Kd [23]: 6 nM
Kd [24]: 73 nM
Kd [25]: 330 nM
IC50 [2]: 170 nM
solubility [14]: 6 µg/mL (≈ 15.4 µM)
Papp A→B at 10 µM [15]: 33 ×10⁻⁶ cm/s
Papp B→A at 10 µM [16]: 23.7 ×10⁻⁶ cm/s
EC50 [26]: 30 nM
ED50 ([26]; po): 0.8 mg/kg
inhibition in vivo at 3 mg/kg [17]: 68%
IC50 [27]: 47 nM
EC50 [28]: 10 nM
ED50 ([28]; po): 0.4 mg/kg
EC50 [29]: 20 nM
ED50 ([29]; po): 0.4 mg/kg
ED50 [30]: 5.5 mg/kg
Tmax [31]: 4.67 h
Cmax [32]: 1560 ng/mL
half-life [33]: 22.5 h
AUC(0-inf) [34]: 29400 ng·h/mL
bioavailability [35]: 51.6%
clearance [36]: 3.05 mL/min/kg
Vd [37]: 2.73 L/kg
fraction unbound [38]: 0.046
IC50 [39]: > 40000 nM
IC50 [40]: > 40000 nM
IC50 [41]: > 40000 nM
IC50 [42]: > 40000 nM
IC50 [43]: > 40000 nM

Structure (SMILES): C[C@H](Cn1ncnn1)Nc1ncc2cc(Oc3ccc(F)cc3F)c(=O)n(C)c2n1
IC50 [2]: 318 nM

Structure (SMILES): Cn1c(=O)c(Oc2ccc(F)cc2F)cc2cnc(N[C@H]3CC[C@H](O)CC3)nc21
IC50 [3]: 4 nM
IC50 [2]: 68 nM

Structure (SMILES): Cn1c(=O)c(Oc2ccc(F)cc2F)cc2cnc(NC3CCOCC3)nc21
inhibition [44]: > 85%
inhibition [45]: > 85%
inhibition [46]: > 85%
inhibition [47]: > 85%
inhibition [48]: > 85%
inhibition [49]: > 85%
inhibition [50]: > 85%
inhibition [51]: > 85%
inhibition [52]: > 85%
inhibition [53]: > 85%
inhibition [54]: > 85%
inhibition [55]: > 85%

Structure (SMILES): Cn1c(=O)c(Oc2ccc(F)cc2)cc2cnc(NC3CCOCC3)nc21
IC50 [2]: 547 nM

Structure (SMILES): CCN(CC)CCOc1ccc(Nc2ncc3c(n2)N(C)C(=O)N(c2c(Cl)cccc2Cl)C3)cc1
Kd [1]: 0.2 nM
Kd [56]: 10 nM

More lines, main results first:

IC50 [2]: 451 nM
Structure (SMILES): Cn1c(=O)c(Oc2ccccc2)cc2cnc(NC3CCOCC3)nc21

IC50 [3]: 1 nM
IC50 [2]: 52 nM
Structure (SMILES): CS(=O)(=O)N1CCC(n2c(=O)c(Oc3ccc(F)cc3F)cc3cnc(NC4CCOCC4)nc32)CC1

IC50 [3]: 7 nM
IC50 [2]: 15 nM
Structure (SMILES): O=c1c(Oc2ccc(F)cc2F)cc2cnc(NC3CCOCC3)nc2n1C[C@H](O)CO

IC50 [2]: 9 nM
solubility [14]: 23 µg/mL (≈ 55.5 µM)
Papp A→B at 10 µM [15]: 30.1 ×10⁻⁶ cm/s
Papp B→A at 10 µM [16]: 19.7 ×10⁻⁶ cm/s
Structure (SMILES): C[C@@H](Cn1ncnn1)Nc1ncc2cc(Oc3ccc(F)cc3F)c(=O)n(C)c2n1
inhibition in vivo at 3 mg/kg [17]: 90%

IC50 [3]: 260 nM
Structure (SMILES): CNc1ncc2cc(Oc3ccc(F)cc3F)c(=O)n(C)c2n1

IC50 [3]: 40 nM
IC50 [2]: 713 nM
Structure (SMILES): Cn1c(=O)c(Cc2ccc(F)cc2F)cc2cnc(NC3CCOCC3)nc21

IC50 [2]: 50 nM
solubility [14]: 18 µg/mL (≈ 42.4 µM)
Papp A→B at 10 µM [15]: 13.5 ×10⁻⁶ cm/s
Papp B→A at 10 µM [16]: 22.4 ×10⁻⁶ cm/s
Structure (SMILES): C[C@H](CS(C)(=O)=O)Nc1ncc2cc(Oc3ccc(F)cc3F)c(=O)n(C)c2n1
inhibition in vivo at 3 mg/kg [17]: 88%

IC50 [3]: 18 nM
IC50 [2]: 84 nM
Structure (SMILES): O=c1[nH]c2nc(NC3CCOCC3)ncc2cc1Oc1ccc(F)cc1F

IC50 [3]: 9 nM
IC50 [2]: 13 nM
Structure (SMILES): O=c1c(Oc2ccc(F)cc2F)cc2cnc(NC3CCOCC3)nc2n1C1CC1
